According to PubChem BioAssay AID1259407 (Chemical Carcinogenesis Research Information System (CCRIS), 2018):
Calls of active or inactive are those of the source. The rule behind the calls is not given here.

Tested on: CCRIS mutagenicity, Ames/micronucleus/aberration tests
Assay: CCRIS mutagenicity studies
[1] = Test System: AMES SALMONELLA TYPHIMURIUM, Strain/Indicator: TA98, Metabolic Activation: NONE, Method: PREINCUBATION
[2] = Test System: AMES SALMONELLA TYPHIMURIUM, Strain/Indicator: TA100, Metabolic Activation: NONE, Method: STANDARD PLATE
[3] = Test System: AMES SALMONELLA TYPHIMURIUM, Strain/Indicator: TA100, Metabolic Activation: RAT, LIVER, S-9, AROCLOR 1254, Method: STANDARD PLATE
[4] = Test System: CHINESE HAMSTER V-79, Strain/Indicator: V-79/6-THIOGUANINE, Metabolic Activation: NONE, Method: STANDARD PLATE
[5] = Test System: AMES SALMONELLA TYPHIMURIUM, Strain/Indicator: TA98, Metabolic Activation: NONE, Method: STANDARD PLATE

`O=C1C=CC(=O)c2c(O)ccc(O)c21` was tested, and the mutagenic call (Test System: AMES SALMONELLA TYPHIMURIUM, Strain/Indicator: TA97, Metabolic Activation: NONE, Method: PREINCUBATION) was “active; positive”, the mutagenic call (Test System: AMES SALMONELLA TYPHIMURIUM, Strain/Indicator: TA97, Metabolic Activation: RAT, LIVER, S-9, PHENOBARBITAL AND 5,6-BENZOFLAVONE, Method: PREINCUBATION) was “active; positive” and the mutagenic call [1] was “inactive; negative”. The mutagenic call (Test System: AMES SALMONELLA TYPHIMURIUM, Strain/Indicator: TA98, Metabolic Activation: RAT, LIVER, S-9, PHENOBARBITAL AND 5,6-BENZOFLAVONE, Method: PREINCUBATION) was “inactive; negative”, the mutagenic call (Test System: AMES SALMONELLA TYPHIMURIUM, Strain/Indicator: TA100, Metabolic Activation: NONE, Method: PREINCUBATION) was “active; positive” and the mutagenic call (Test System: AMES SALMONELLA TYPHIMURIUM, Strain/Indicator: TA100, Metabolic Activation: RAT, LIVER, S-9, PHENOBARBITAL AND 5,6-BENZOFLAVONE, Method: PREINCUBATION) was “active; positive”. The mutagenic call (Test System: AMES SALMONELLA TYPHIMURIUM, Strain/Indicator: TA102, Metabolic Activation: NONE, Method: PREINCUBATION) was “active; positive”, the mutagenic call (Test System: AMES SALMONELLA TYPHIMURIUM, Strain/Indicator: TA102, Metabolic Activation: RAT, LIVER, S-9, PHENOBARBITAL AND 5,6-BENZOFLAVONE, Method: PREINCUBATION) was “active; positive” and the mutagenic call (Test System: AMES SALMONELLA TYPHIMURIUM, Strain/Indicator: TA104, Metabolic Activation: NONE, Method: PREINCUBATION) was “active; positive”. The mutagenic call (Test System: AMES SALMONELLA TYPHIMURIUM, Strain/Indicator: TA104, Metabolic Activation: RAT, LIVER, S-9, PHENOBARBITAL AND 5,6-BENZOFLAVONE, Method: PREINCUBATION) was “active; positive”, the mutagenic call (Test System: AMES SALMONELLA TYPHIMURIUM, Strain/Indicator: TA1535, Metabolic Activation: NONE, Method: PREINCUBATION) was “inactive; negative” and the mutagenic call (Test System: AMES SALMONELLA TYPHIMURIUM, Strain/Indicator: TA1535, Metabolic Activation: RAT, LIVER, S-9, PHENOBARBITAL AND 5,6-BENZOFLAVONE, Method: PREINCUBATION) was “inactive; negative”. For the same molecule, the mutagenic call (Test System: AMES SALMONELLA TYPHIMURIUM, Strain/Indicator: TA1537, Metabolic Activation: NONE, Method: PREINCUBATION) was “inactive; negative”, the mutagenic call (Test System: AMES SALMONELLA TYPHIMURIUM, Strain/Indicator: TA1537, Metabolic Activation: RAT, LIVER, S-9, PHENOBARBITAL AND 5,6-BENZOFLAVONE, Method: PREINCUBATION) was “active; positive” and the mutagenic call (Test System: AMES SALMONELLA TYPHIMURIUM, Strain/Indicator: TA1538, Metabolic Activation: NONE, Method: PREINCUBATION) was “inactive; negative”. For the same molecule, the mutagenic call (Test System: AMES SALMONELLA TYPHIMURIUM, Strain/Indicator: TA1538, Metabolic Activation: RAT, LIVER, S-9, PHENOBARBITAL AND 5,6-BENZOFLAVONE, Method: PREINCUBATION) was “inactive; negative”, the mutagenic call (Test System: AMES SALMONELLA TYPHIMURIUM, Strain/Indicator: TA2637, Metabolic Activation: NONE, Method: PREINCUBATION) was “active; positive” and the mutagenic call (Test System: AMES SALMONELLA TYPHIMURIUM, Strain/Indicator: TA2637, Metabolic Activation: RAT, LIVER, S-9, PHENOBARBITAL AND 5,6-BENZOFLAVONE, Method: PREINCUBATION) was “active; positive”.

For `CCCCN(N)CCCC`, the mutagenic call (Test System: AMES SALMONELLA TYPHIMURIUM, Strain/Indicator: TA100, Metabolic Activation: NONE, Method: PREINCUBATION (11 HR GROWTH PERIOD FOR BACTERIA)) was “active; positive”, the mutagenic call [2] was “inactive; negative” and the mutagenic call [3] was “inactive; negative”. For the same molecule, the mutagenic call (Test System: AMES SALMONELLA TYPHIMURIUM, Strain/Indicator: TA100, Metabolic Activation: RAT, LIVER, S-9, PCB, Method: PREINCUBATION (11 HR GROWTH PERIOD FOR BACTERIA)) was “inactive; negative”, the mutagenic call (Test System: AMES SALMONELLA TYPHIMURIUM, Strain/Indicator: TA102, Metabolic Activation: NONE, Method: PREINCUBATION (5 HR GROWTH PERIOD FOR BACTERIA)) was “active; positive” and the mutagenic call (Test System: AMES SALMONELLA TYPHIMURIUM, Strain/Indicator: TA102, Metabolic Activation: NONE, Method: PREINCUBATION (7 HR GROWTH PERIOD FOR BACTERIA)) was “inactive; negative”. For the same molecule, the mutagenic call (Test System: AMES SALMONELLA TYPHIMURIUM, Strain/Indicator: TA102, Metabolic Activation: NONE, Method: STANDARD PLATE) was “inactive; negative”, the mutagenic call (Test System: AMES SALMONELLA TYPHIMURIUM, Strain/Indicator: TA102, Metabolic Activation: RAT, LIVER, S-9, AROCLOR 1254, Method: STANDARD PLATE) was “inactive; negative” and the mutagenic call (Test System: AMES SALMONELLA TYPHIMURIUM, Strain/Indicator: TA102, Metabolic Activation: RAT, LIVER, S-9, PCB, Method: PREINCUBATION (5 OR 7 HR GROWTH PERIOD FOR BACTERIA)) was “inactive; negative”.

`COc1c(O)c(Cl)c(Cl)c(Cl)c1Cl` was tested, and the mutagenic call [4] was “inactive; negative”.

In the case of `C[C@@H]1CC2c3cccc4c3c(cn4C3CCCC3)C[C@H]2N(C)C1` (stereo not given in full), the mutagenic call [3] is reported as “active; positive”.

In the case of `Cc1cc2c(C(C)C)c(O)c(O)c(C=O)c2c(O)c1-c1c(C)cc2c(C(C)C)c(O)c(O)c(C=O)c2c1O`, the mutagenic call [5] is reported as “inactive; negative”, the mutagenic call (Test System: AMES SALMONELLA TYPHIMURIUM, Strain/Indicator: TA98, Metabolic Activation: RAT, LIVER, S-9, AROCLOR 1254 OR PHENOBARBITAL, Method: STANDARD PLATE) is reported as “inactive; negative” and the mutagenic call [2] is reported as “inactive; negative”. For the same molecule, the mutagenic call (Test System: AMES SALMONELLA TYPHIMURIUM, Strain/Indicator: TA100, Metabolic Activation: RAT, LIVER, S-9, AROCLOR 1254 OR PHENOBARBITAL, Method: STANDARD PLATE) was “inactive; negative”.

In the case of `Cc1c2ccccc2c(COS(=O)(=O)O)c2ccc3ccccc3c12`, the mutagenic call [1] is reported as “active; positive”.

In the case of `O=CN(O)c1ccc(Oc2c(Cl)cc(Cl)cc2Cl)cc1`, the mutagenic call [2] is reported as “inactive; negative” and the mutagenic call (Test System: AMES SALMONELLA TYPHIMURIUM, Strain/Indicator: TA100, Metabolic Activation: RAT, LIVER, S-9, KANECLOR 500, Method: STANDARD PLATE) is reported as “active; positive”.

For `Oc1c(Cl)cc(Cl)c(Cl)c1O`, the mutagenic call [4] was “active; positive” and the mutagenic call (Test System: CHINESE HAMSTER V-79, Strain/Indicator: V-79/6-THIOGUANINE, Metabolic Activation: PRIMARY RAT HEPATOCYTES, Method: STANDARD PLATE) was “inactive; negative”.

For `COC(=O)c1ccc([N+](=O)[O-])c2c(NCCCN(C)C)c3ccccc3nc12`, the mutagenic call [5] was “active; positive” and the mutagenic call [2] was “active; positive”.
